Reference: patent US6051683A, “Immune regulating peptides and method of obtaining them” (Immunotech Developments Inc., priority 1995, dated 2000)
Peptide text beside a SMILES is read from it.

Assays:
[1] = test system: lymphocytes of the guinea pigs; assay: E-yield (E-POK) of guinea pig lymphocytes after processing with trypsin; format: cell-based; settings: untreated animals 66.5, treated with trypsin 36.1
Experimental: Biological activity of the new peptide was studied on guinea pigs using recognised testing methods of E-yield of lymphocytes of the guinea pigs subsequent to processing with trypsin.
*Each concentration was tested on 5 animals. The positive growth differs
in relation to the control group EPOK is 50% or higher.

[2] = Solubility of the peptide; format: physicochemical
Description: The peptide obtained by the above formula has the texture of a white powder, which is soluble in water, not completely soluble in alcohol and non soluble on chloroform.
Solubility--Soluble in water, non soluble in chloroform.

- Solubility in chloroform ([2]; chloroform): non soluble
- Solubility in water ([2]; water): Soluble
Compound: CC[C@H](C)[C@H](N)C(=O)N[C@@H](CCC(=O)O)C(=O)N[C@@H](Cc1c[nH]c2ccccc12)C(=O)O [Ile-Glu-Trp, H-Ile-Glu-Trp-OH] (H-Ile-Glu-Trp-OH)
- QUANTITY E-POK, (%) after treatment with trypsin and compound ([1]; compound concentration 10^-6 mg/ml): 61.4%
- QUANTITY E-POK, (%) after treatment with trypsin and compound ([1]; compound concentration 10^-7 mg/ml): 63.9%
- QUANTITY E-POK, (%) after treatment with trypsin and compound ([1]; compound concentration 10^-8 mg/ml): 64.8%
- QUANTITY E-POK, (%) after treatment with trypsin and compound ([1]; compound concentration 10^-9 mg/ml): 60.2%
- QUANTITY E-POK, (%) after treatment with trypsin and compound ([1]; compound concentration 10^-10 mg/ml): 37.5%
- QUANTITY E-POK, (%) after treatment with trypsin and compound ([1]; compound concentration 10^-11 mg/ml): 40.0%
- QUANTITY E-POK, (%) after treatment with trypsin and compound ([1]; compound concentration 10^-12 mg/ml): 34.3%
